What all share (format): functional
Test [1] deals with Rattus norvegicus. Put plainly: Compound was evaluated in rat PCA (passive cutaneous anaphylaxis) test administered at 100 mg/kg orally and the inhibition of PCA due to inhibition of IgE mediated release was determined. As to conditions: for inhibition in vivo at 100 mg/kg: Rattus norvegicus, po.
Test [2] deals with Rattus norvegicus. Nature of the test: Evaluated in rat PCA (passive cutaneous anaphylaxis) test administered at 60 mg/kg ip and the inhibition of PCA due to inhibition of IgE mediated release was determined. As to conditions: route intraperitoneal; for inhibition in vivo at 60 mg/kg: Rattus norvegicus, ip.
For test [3], the system named is Rattus norvegicus. Nature of the test: Compound was evaluated in rat PCA(passive cutaneous anaphylaxis) test administered intravenously. Particulars: iv.
Test [4] deals with Rattus norvegicus. Nature of the test: Compound was evaluated in rat PCA (passive cutaneous anaphylaxis) test administered intravenously. As to conditions: iv.

What is called inhibition in vivo is the percentage by which the read-out fell short of the control. Lower therefore signals a weak effect. A word on the ED50: it is the dose at which the effect has come halfway, by size or by number of responders. Read a low ED50 as an effect at a small dose. Usually Inhibition stands for how much of the control response was suppressed.

Each structure is given as a SMILES string.

`O=c1c2ccccc2ncn1-c1nnn[nH]1`: the inhibition in vivo at 100 mg/kg in the test on Rattus norvegicus [1] stood at 89%. Besides, in the test on Rattus norvegicus [2], at 60 mg/kg the inhibition in vivo was 100%.

`O=c1c2cc3c(cc2ncn1-c1nn[nH]n1)OCO3` came in with an inhibition in vivo at 60 mg/kg in the test with Rattus norvegicus [2] of 90%.

Take `O=c1c2cc(Cl)ccc2ncn1-c1nn[nH]n1`: 60 mg/kg produced 89% inhibition in vivo in the test on Rattus norvegicus [2].

In turn, `Cc1cccc2c(=O)n(-c3nn[nH]n3)cnc12` showed an inhibition in vivo at 60 mg/kg in the test on Rattus norvegicus [2] of 64%.

In the test on Rattus norvegicus [1], `O=CNc1ccccc1C(=O)Nc1nn[nH]n1` registered an inhibition in vivo at 100 mg/kg of 91%. For the same molecule, 60 mg/kg produced 89% inhibition in vivo in the test on Rattus norvegicus [2].

Turning to `O=c1c2ccccc2nc(-c2ccccc2)n1-c1nn[nH]n1`, 60 mg/kg produced 27% inhibition in vivo with Rattus norvegicus [2].

`O=c1c2ccccc2ncn1-c1cc[nH]n1` displayed an inhibition in vivo at 60 mg/kg in the test with Rattus norvegicus [2] of 5%.

`O=c1c2ccccc2ncn1-c1nc[nH]n1` displayed an inhibition in vivo at 60 mg/kg in the test with Rattus norvegicus [2] of 75%.

For the molecule `O.O=c1c2ccccc2ncn1-c1nnn[n-]1.[Na+]`, the ED50 with Rattus norvegicus [3] was found to be 0.2 mg/kg. The Inhibition in the test on Rattus norvegicus [1] (route oral) is recorded as 97%; with Rattus norvegicus [2] it was 93%.

In the test with Rattus norvegicus [1], `O=C([O-])c1cc(=O)c2c(OCC(O)COc3cccc4oc(C(=O)[O-])cc(=O)c34)cccc2o1.[Na+].[Na+]` [CROMOLYN SODIUM] came in with an inhibition in vivo at 100 mg/kg of 0%. For the same molecule, the inhibition in vivo at 60 mg/kg with Rattus norvegicus [2] is 100%. The same molecule had an ED50 with Rattus norvegicus [4] of 0.7 mg/kg.

As to `Nc1ccccc1C(=O)Nc1nn[nH]n1`, the inhibition in vivo at 100 mg/kg with Rattus norvegicus [1] turned out to be 7%. Also, in the test with Rattus norvegicus [2], 60 mg/kg produced 59% inhibition in vivo. In addition, the ED50 with Rattus norvegicus [4] was determined as 10.5 mg/kg.

`O=c1c2ccccc2ncn1-n1cnnc1`: the inhibition in vivo at 60 mg/kg in the test with Rattus norvegicus [2] was found to be 0%.

In the test on Rattus norvegicus [2], `COc1cccc2c(=O)n(-c3nn[nH]n3)cnc12` gave an inhibition in vivo at 60 mg/kg of 44%.

Turning to `CCc1nc2ccccc2c(=O)n1-c1nn[nH]n1`, in the test with Rattus norvegicus [2], the inhibition in vivo at 60 mg/kg came out at 41%.

Turning to `Cc1nc2ccccc2c(=O)n1-c1nn[nH]n1`, the inhibition in vivo at 60 mg/kg in the test on Rattus norvegicus [2] stood at 22%.

Take `Cc1cccc2ncn(-c3nn[nH]n3)c(=O)c12`: the inhibition in vivo at 60 mg/kg with Rattus norvegicus [2] is 80%.

Take `Cc1ccc2ncn(-c3nn[nH]n3)c(=O)c2c1`: the inhibition in vivo at 60 mg/kg in the test with Rattus norvegicus [2] was 100%.

The values above are taken from ChEMBL document CHEMBL1123376, “3-(1H-tetrazol-5-yl)-4(3H)-quinazolinone sodium salt (MDL 427): a new antiallergic agent” (1986).
